Test systems include A498; COLO 205; EKVX; HCC 2998; HOP-62; HT-29; Hs-578T; IGROV-1; KM12; MDA-MB-231; MOLT-4; NCI-H23; NCI-H522; PC-3; RPMI-8226; RXF 393; SF-295; SK-MEL-2; SK-MEL-5; HOP-92.
What all share (test): DTP human tumour cell line panel, 48 h

One may read the GI50 as the concentration at which growth is held to half of that of the control.

The structures appear in SMILES notation.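 96-well plates; 48 h exposure; 5 concentrations. Endpoints by linear interpolation between flanking doses. Not reached: highest tested concentration assigned. Abbreviation: GI50, concentration required for 50% inhibition of growth.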 Active and inactive are the calls of the source. Cut-off read from the data, not from the text of the source: active = GI50 up to about 1.1 µM and inactive = higher.

`O=[N+]([O-])c1ccc(N/N=C2/CC3=C2CCCCCCCCCC3)c([N+](=O)[O-])c1`: the GI50 is 88.9 µM (inactive) with A498; > 100 µM (inactive) in the test on COLO 205; > 100 µM (inactive) in the test on EKVX; > 100 µM (inactive) in the test on HCC 2998; > 100 µM (inactive) in the test on HOP-62; > 100 µM (inactive) in the test on HT-29. For the same molecule, the GI50 with Hs-578T was 39.3 µM (inactive); in the test on IGROV-1, > 100 µM (inactive); in the test with KM12 it was > 100 µM (inactive); in the test with MDA-MB-231, 32.7 µM (inactive); in the test with MOLT-4, > 100 µM (inactive); with NCI-H23, > 100 µM (inactive). Besides, the GI50 with NCI-H522, with PC-3, in the test on RPMI-8226, with RXF 393, in the test with SF-295 and in the test with SK-MEL-2 was > 100 µM (inactive) throughout. Moreover, in the test on SK-MEL-5, the GI50 was > 100 µM (inactive).

As for `CC(=O)C(C(C)=O)[C@H]1OC(C)(C)O[C@H]1[C@H]1COC(C)(C)O1`, the GI50 in the test on A498 was > 100 µM (inactive); in the test with COLO 205, 17.7 µM (inactive); with EKVX it was 50.6 µM (inactive); in the test on HCC 2998 it was 26.5 µM (inactive); in the test with HOP-62, 23.4 µM (inactive); with HOP-92 it was 80 µM (inactive). For the same molecule, the GI50 with HT-29 was 33.6 µM (inactive); in the test with Hs-578T, 44.8 µM (inactive); with IGROV-1 it was 53.5 µM (inactive); in the test with KM12, 35.7 µM (inactive); in the test with MDA-MB-231, 28.6 µM (inactive); with MOLT-4, 50.8 µM (inactive). The GI50 in the test with NCI-H23 was 30.8 µM (inactive); in the test with NCI-H522 it was 33.8 µM (inactive); with PC-3, 24.5 µM (inactive); with RXF 393, 36.2 µM (inactive); in the test with SF-295, 29.2 µM (inactive); in the test with SK-MEL-2 it was 22.6 µM (inactive). The GI50 in the test on SK-MEL-5 was 29.1 µM (inactive).

For `C#C[C@]1(O)CC[C@H]2[C@@H]3CCC4=C/C(=N/OCCN(C)C)CC[C@]4(C)[C@H]3CC[C@@]21C`, the GI50 with A498 is 41.4 µM (inactive); in the test on COLO 205, 26.7 µM (inactive); with EKVX, 32.3 µM (inactive); in the test with HCC 2998 it was 41 µM (inactive); in the test on HOP-62, 29.9 µM (inactive); with HOP-92, 52.8 µM (inactive). The GI50 was 6.78 µM (inactive) in the test on HT-29; 26.9 µM (inactive) with Hs-578T; 50.7 µM (inactive) in the test on IGROV-1; 52 µM (inactive) in the test with KM12; 39.9 µM (inactive) with MDA-MB-231; 32.9 µM (inactive) in the test on MOLT-4. The GI50 in the test with NCI-H23 was 36.1 µM (inactive); with NCI-H522, 16.3 µM (inactive); in the test on PC-3, 27.7 µM (inactive); in the test on RPMI-8226 it was 28.4 µM (inactive); in the test with SF-295 it was 6.97 µM (inactive); in the test on SK-MEL-2, 31.7 µM (inactive). In the test on SK-MEL-5, the GI50 is 13.2 µM (inactive).

On to `CC1=CC2(C)C=C[C@@H]1C(=O)[C@@]1(C)CC[C@@](O)(C(C)C)[C@H]1CC2`, for which the GI50 was 28.6 µM (inactive) with A498; 20.7 µM (inactive) with COLO 205; 24.4 µM (inactive) with EKVX; 17.5 µM (inactive) with HCC 2998; 20.2 µM (inactive) with HOP-62; 14.4 µM (inactive) in the test on HOP-92. The GI50 is 16.1 µM (inactive) with HT-29; 25.4 µM (inactive) with Hs-578T; 26.2 µM (inactive) with IGROV-1; 20.3 µM (inactive) with KM12; 17.5 µM (inactive) in the test on MDA-MB-231; 24.8 µM (inactive) with MOLT-4. Moreover, the GI50 in the test with NCI-H23 was 19.1 µM (inactive); in the test with PC-3, 24.2 µM (inactive); in the test with RPMI-8226 it was 26.5 µM (inactive); in the test with RXF 393, 19.4 µM (inactive); in the test on SF-295 it was 16.7 µM (inactive); with SK-MEL-2, 33.3 µM (inactive). In the test with SK-MEL-5, the GI50 is 19.7 µM (inactive).

Consider `Cc1ccc(OCC2CO2)c(Br)c1` (stereo unspecified), for which the GI50 with A498 is 34.4 µM (inactive); with COLO 205 it was 17.7 µM (inactive); in the test with EKVX, 13.8 µM (inactive); in the test on HCC 2998 it was 16 µM (inactive); in the test on HOP-62 it was 39.4 µM (inactive); in the test with HOP-92, 14.7 µM (inactive). For the same molecule, the GI50 was 12.7 µM (inactive) in the test on HT-29; 28.5 µM (inactive) in the test on Hs-578T; 15.5 µM (inactive) in the test on IGROV-1; 66.7 µM (inactive) in the test on KM12; 21.9 µM (inactive) with MDA-MB-231; 7.83 µM (inactive) in the test on MOLT-4. Also, the GI50 was 22.5 µM (inactive) in the test on NCI-H23; 47.3 µM (inactive) in the test with PC-3; 25.1 µM (inactive) with RPMI-8226; 10.1 µM (inactive) in the test on RXF 393; 21 µM (inactive) in the test on SF-295; 18.1 µM (inactive) in the test on SK-MEL-5.

For `O=c1cc(-c2ccccc2F)[nH]c2ccc(N3CCCC3)cc12`, the 50% growth inhibitory concentration (GI50) was 0.0215 µM (active) in the test on A498; 0.0557 µM (active) with COLO 205; 0.00138 µM (active) in the test on EKVX; 0.00179 µM (active) in the test on HCC 2998; 0.34 µM (active) with HOP-62; 0.0284 µM (active) in the test with HT-29. Besides, the GI50 in the test with Hs-578T is 0.0201 µM (active); in the test with IGROV-1, 0.792 µM (active); in the test with KM12, 0.0955 µM (active); in the test on MDA-MB-231, 0.00122 µM (active); in the test with MOLT-4 it was 0.078 µM (active); in the test on NCI-H23, 0.00155 µM (active). Moreover, the GI50 with NCI-H522 is 0.0326 µM (active); with PC-3 it was < 0.001 µM (active); in the test on RPMI-8226 it was 0.0468 µM (active); with RXF 393 it was 13 µM (inactive); with SK-MEL-2, 0.0167 µM (active); in the test on SK-MEL-5, 0.0419 µM (active).

For `CN(C)c1nc(-c2ccccc2)c(C(=O)c2c[nH]c3ccccc23)s1`, the GI50 was 9.98 µM (inactive) in the test with A498; 4.78 µM (inactive) in the test on COLO 205; 26 µM (inactive) in the test with EKVX; 6.55 µM (inactive) with HCC 2998; 15.1 µM (inactive) in the test on HOP-62; 3.51 µM (inactive) in the test on HT-29. Further, the GI50 was 4.75 µM (inactive) in the test on Hs-578T; 3.89 µM (inactive) in the test on IGROV-1; 4.2 µM (inactive) in the test with KM12; 14.5 µM (inactive) in the test with MDA-MB-231; 6.62 µM (inactive) with MOLT-4; 30 µM (inactive) in the test with NCI-H23. Further, the GI50 was 2.76 µM (inactive) in the test with NCI-H522; > 31.3 µM (inactive) in the test on PC-3; 3.16 µM (inactive) in the test on RPMI-8226; 14.2 µM (inactive) in the test on RXF 393; 3.92 µM (inactive) in the test on SF-295; 8.57 µM (inactive) in the test with SK-MEL-5.

`C/C=C/C=C\C=C/C(O)C(C)C(CCC(C)C1OC(=O)C=CC1C)OP(=O)(O)O` (stereo unspecified): the GI50 was 0.22 µM (active) with A498; 0.268 µM (active) in the test with COLO 205; 0.447 µM (active) in the test with EKVX; 0.303 µM (active) in the test on HOP-62; 0.244 µM (active) with HOP-92; 0.376 µM (active) with HT-29. Moreover, the GI50 in the test with Hs-578T was 1.42 µM (inactive); in the test on IGROV-1, 0.275 µM (active); with KM12, 0.318 µM (active); in the test on MDA-MB-231, 35.8 µM (inactive); in the test on MOLT-4, 0.275 µM (active); in the test on NCI-H23, 1.52 µM (inactive). Further, the GI50 in the test with NCI-H522 is 1.35 µM (inactive); with PC-3, 0.23 µM (active); in the test with RPMI-8226, 0.127 µM (active); with RXF 393, 0.527 µM (active); in the test on SF-295 it was 0.287 µM (active); in the test on SK-MEL-2, 0.692 µM (active). Further, the GI50 with SK-MEL-5 was 0.658 µM (active).

In the case of `CC1OCC2OC(C)OC(C3C4=C(CC(C)(C)CC4=O)OC4=C3C(=O)CC(C)(C)C4)C2O1` (stereo unspecified), the GI50 in the test with A498, in the test with COLO 205, in the test on EKVX, in the test with HCC 2998, in the test on HOP-62 and in the test on HOP-92 was > 100 µM (inactive) throughout. Moreover, the GI50 with HT-29, in the test on Hs-578T, with KM12, in the test on MDA-MB-231, in the test on MOLT-4 and in the test on NCI-H23 was > 100 µM (inactive) each time. Moreover, the GI50 with NCI-H522, with PC-3, in the test on RPMI-8226, in the test with RXF 393, in the test on SF-295 and with SK-MEL-2 was > 100 µM (inactive) in each case. Also, in the test with SK-MEL-5, the GI50 was > 100 µM (inactive).

For the molecule `C[C@]12CC[C@H](OC3OC(CO)C(O)C(O)C3O)C[C@H]1CC[C@@H]1[C@@H]2CC[C@]2(C)[C@@H](C3=CCOC3=O)CC[C@]12O` (stereo partly specified) [ACTODIGIN], the GI50 with A498 was 5.48 µM (inactive); with COLO 205 it was 16.9 µM (inactive); in the test on EKVX, 16.5 µM (inactive); in the test on HCC 2998, 26.8 µM (inactive); in the test on HOP-62, 0.787 µM (active); with HOP-92 it was 2.24 µM (inactive). Also, the GI50 in the test on HT-29 was 41.1 µM (inactive); in the test with Hs-578T, 40.9 µM (inactive); with IGROV-1, 28.4 µM (inactive); in the test on KM12 it was 19.2 µM (inactive); in the test on MDA-MB-231, > 100 µM (inactive); in the test with NCI-H23 it was 15.8 µM (inactive). For the same molecule, the GI50 in the test with NCI-H522 was 16.8 µM (inactive); with PC-3, > 100 µM (inactive); in the test on RXF 393, 8.49 µM (inactive); in the test on SF-295, 1.45 µM (inactive); with SK-MEL-2 it was 30.9 µM (inactive); with SK-MEL-5, 7.52 µM (inactive).

The values are drawn from ChEMBL document CHEMBL1201862, “PubChem BioAssay data set” (2004).
